The CheMixHub ionic liquid set

Test: xn = mol fraction of the nth substance listed

CC(=O)[O-].Cn1cc[n+](C)c1 + O
293.15 K, 101.3 kPa
Details	electrical conductivity [S/m]
x2 = 0	0.275
x2 = 0.0799	0.561
x2 = 0.1095	0.863
x2 = 0.2767	1.457
x2 = 0.4986	2.733
x2 = 0.5673	3.384
x2 = 0.7029	5.091
x2 = 0.7484	5.772
x2 = 0.8651	7.166
x2 = 0.8897	6.824
x2 = 0.9043	5.765
x2 = 0.9388	2.782
x2 = 0.9483	2
x2 = 0.9579	1.213
x2 = 0.9681	0.729

CCCC[P+](CCCC)(CCCC)CCCC.[Br-] + OCC(O)CO
101.3 kPa, x1 = 0.333
Details	viscosity [mPa·s]
293.15 K	468
298.15 K	329
303.15 K	235
308.15 K	172
313.15 K	116
318.15 K	97.1
323.15 K	68.4

[Br-].[PH3+]CCCCCCCCCCCCCC(c1ccccc1)(c1ccccc1)c1ccccc1 + O
300 K, 101 kPa
Details	electrical conductivity [S/m]
x2 = 0.503	0.00198
x2 = 0.603	0.00058
x2 = 0.802	0.00038

CC[n+]1ccn(C)c1.O=C([O-])C(F)(F)C(F)(F)C(F)(F)C(F)(F)F + O
101 kPa
Details	viscosity [mPa·s]
298.15 K, x1 = 0.02217	2.59
298.15 K, x1 = 0.1009	10.41
298.15 K, x1 = 0.2367	20.95
298.15 K, x1 = 0.4266	36.3
308.15 K, x1 = 0.03108	2.57
308.15 K, x1 = 0.04277	3.44
308.15 K, x1 = 0.08573	6
308.15 K, x1 = 0.1458	9.48
308.15 K, x1 = 0.2011	12.32
308.15 K, x1 = 0.2621	15.23
308.15 K, x1 = 0.3007	17.04
318.15 K, x1 = 0.02217	1.616
318.15 K, x1 = 0.1458	6.88
318.15 K, x1 = 0.1625	7.47

CCCCCCn1cc[n+](CCCCCC)c1.O=S(=O)([N-]S(=O)(=O)C(F)(F)F)C(F)(F)F + O
100 kPa, x2 = 0.1489
Details	viscosity [mPa·s]
303.15 K	65.69
328.15 K	24.7

CC[n+]1ccn(C)c1.O=S(=O)([O-])C(F)(F)F + O=S(=O)([N-]S(=O)(=O)C(F)(F)F)C(F)(F)F.[Li+]
101 kPa, x1 = 1
Details	electrical conductivity [S/m]
288.15 K	0.605
298.15 K	0.859
333.15 K	2.24

CCc1n(S(=O)(=O)O)cc[n+]1S(=O)(=O)O.O=C([O-])C(F)(F)F + CO
electrical conductivity [S/m], 101 kPa
Details	283.15 K	293.15 K	298.15 K	313.15 K
x1 = 0.0052	–	–	1.51	–
x1 = 0.0255	–	–	3.08	–
x1 = 0.02551	3.57	3.28	3.08	2.7

CCCCOC(C)=O + CCCC[n+]1ccn(C)c1.O=S(=O)([N-]S(=O)(=O)C(F)(F)F)C(F)(F)F
Details	electrical conductivity, x1 = 0.8928 [S/m]	electrical conductivity, x1 = 0.9456 [S/m]	viscosity, x1 = 0.313 [mPa·s]	viscosity, x1 = 0.8928 [mPa·s]	viscosity, x1 = 0.9456 [mPa·s]
298.15 K, 100 kPa	0.373	0.163	–	1.47	1.092
318.15 K, 100.7 kPa	–	–	10	–	–

CCCCCCCCCCCCCC[P+](CCCCCC)(CCCCCC)CCCCCC.N#Cc1nc[n-]c1C#N + COCCOCCOCCOCCOC
viscosity [mPa·s], 100 kPa
Details	278.15 K	283.15 K	288.15 K	293.15 K	298.15 K	303.15 K	308.15 K	313.15 K	318.15 K	323.15 K
x2 = 0.201	1051	723	507	365	269	203	156	123	98	79
x2 = 0.401	389	283	209	158	122	97	77	63	–	–

CC[n+]1ccn(C)c1.[I-] + CCO
Details	electrical conductivity [S/m]
298.15 K, 100 kPa, x1 = 0.4385	2.22

CC[N+](CC)(CC)CC.O=S(=O)([O-])C(F)(F)F + CC#N
100 kPa
Details	electrical conductivity [S/m]
293.15 K, x1 = 0.02	2.56
293.15 K, x1 = 0.05	4.03
298.15 K, x1 = 0.0997	4.87
308.15 K, x1 = 0.1498	4.75
318.15 K, x1 = 0.05	4.94
318.15 K, x1 = 0.2995	3.89
323.15 K, x1 = 0.2995	4.16
333.15 K, x1 = 0.2	5.43
333.15 K, x1 = 0.25	4.96
333.15 K, x1 = 0.2995	4.73
348.15 K, x1 = 0.02	3.67
348.15 K, x1 = 0.08	6.89
348.15 K, x1 = 0.1498	6.97

O=c1cc[nH]c(=O)[nH]1 + CC(=O)[O-].CC[n+]1ccn(C)c1
Details	viscosity [mPa·s]
298.15 K, 100 kPa, x1 = 0.233	773

CC(=O)[O-].Cn1cc[n+](C)c1 + CCO
293.15 K, 101.3 kPa
Details	electrical conductivity [S/m]
x2 = 0	0.275
x2 = 0.0694	0.335
x2 = 0.1341	0.401
x2 = 0.2695	0.559
x2 = 0.4097	0.873
x2 = 0.5071	1.197
x2 = 0.6815	1.821
x2 = 0.7393	1.903
x2 = 0.7685	1.86
x2 = 0.7896	1.683
x2 = 0.8843	0.86
x2 = 0.9267	0.491
x2 = 0.9487	0.302
x2 = 0.9595	0.213
x2 = 0.9709	0.131

CC[n+]1ccn(C)c1.O=S(=O)([O-])C(F)(F)F + CCC(C)O
101 kPa
Details	viscosity [mPa·s]
298.15 K, x1 = 0.7986	30.77
298.15 K, x1 = 1	45.67
303.15 K, x1 = 0.3938	6.96
303.15 K, x1 = 0.4988	9.31
303.15 K, x1 = 0.5952	13.31
303.15 K, x1 = 0.7986	26.05
308.15 K, x1 = 0.3938	6.16
308.15 K, x1 = 0.903	28.15
313.15 K, x1 = 0.1945	3.63
313.15 K, x1 = 0.4988	7.33
313.15 K, x1 = 0.5952	10.28
313.15 K, x1 = 0.6907	14.61
313.15 K, x1 = 1	27.68
318.15 K, x1 = 0.4988	6.57
318.15 K, x1 = 0.903	20.96
323.15 K, x1 = 0.6907	11.38
323.15 K, x1 = 0.903	18.3

CC[S+](CC)CCOCCOCC[S+](CC)CC.N#C[N-]C#N.N#C[N-]C#N + CC[n+]1ccn(C)c1.N#C[N-]C#N + O=S(=O)([N-]S(=O)(=O)C(F)(F)F)C(F)(F)F.[Li+]
100 kPa, x1 = 0.2666, x2 = 0.6449
Details	electrical conductivity [S/m]
298 K	0.501
303 K	0.604
313 K	0.841
323 K	1.13
333 K	1.44
343 K	1.72

CCCCCCCC[n+]1ccc2ccccc2c1.O=S(=O)([N-]S(=O)(=O)C(F)(F)F)C(F)(F)F + c1ccncc1
101 kPa
Details	viscosity [mPa·s]
308.15 K, x2 = 0.0945	155
308.15 K, x2 = 0.8199	5.32
328.15 K, x2 = 0	67.9
328.15 K, x2 = 0.7274	4.82
338.15 K, x2 = 0.0945	38.2
338.15 K, x2 = 0.5383	10.76
338.15 K, x2 = 0.8199	3.09
348.15 K, x2 = 0.0945	26.97

[Br-].[Li+] + CCCC[n+]1ccn(C)c1.N#C[S-] + CN1CCCC1=O
298.15 K, 101 kPa
Details	viscosity [mPa·s]
x2 = 0, x1 = 0.02626	2.359
x2 = 0, x1 = 0.05114	3.124
x2 = 0, x1 = 0.07535	4.344

CCCCn1cc[n+](CCOCC[n+]2ccn(CCCC)c2)c1.N#C[N-]C#N.N#C[N-]C#N + CC[n+]1ccn(C)c1.N#C[N-]C#N + O=S(=O)([N-]S(=O)(=O)C(F)(F)F)C(F)(F)F.[Li+]
100 kPa, x1 = 0.2561, x2 = 0.6541
Details	electrical conductivity [S/m]
298 K	0.527
303 K	0.737
313 K	0.921
323 K	1.35
333 K	1.74
343 K	2.13

CC[n+]1ccn(C)c1.O=S(=O)([O-])C(F)(F)F + OCC(O)CO
100 kPa
Details	electrical conductivity [S/m]	viscosity [mPa·s]
293.15 K, x1 = 0.002	–	1372
293.15 K, x2 = 0.199	–	48.9
293.15 K, x2 = 0.605	–	97.9
293.15 K, x2 = 0.698	–	146.4
293.15 K, x2 = 0.962	–	968
298.15 K, x1 = 0.002	0.000274	–
298.15 K, x1 = 0.004	0.00056	–
298.15 K, x1 = 0.011	0.00141	–
298.15 K, x1 = 0.018	0.00247	–
298.15 K, x2 = 0.401	0.68	45.4
303.15 K, x2 = 0.962	–	425
313.15 K, x1 = 0.002	0.00084	–
313.15 K, x1 = 0.004	0.00176	–
313.15 K, x1 = 0.011	0.00439	–
313.15 K, x1 = 0.018	0.0079	243
313.15 K, x2 = 0.299	1.27	23.4

O=S(=O)([O-])C(F)(F)F.[Li+] + CC[n+]1ccn(C)c1.O=S(=O)([N-]S(=O)(=O)C(F)(F)F)C(F)(F)F
electrical conductivity [S/m], 101 kPa
Details	288.15 K	298.15 K	333.15 K
x1 = 0.01919	0.57	0.819	2
x2 = 0.9274	–	0.672	1.71
x2 = 0.9587	0.515	0.766	1.93
